The record followed here is patent publication US20240092803A1, “BRIDGED COMPOUNDS AS KRAS G12D INHIBITOR AND DEGRADER AND THE USE THEREOF” (BEIGENE SWITZERLAND GMBH, priority 2021, published 2024).

The target of test [1] is KRAS G12D HiBiT in HEK293 KRAS-G12D NanoLuc cell pool (Homo sapiens (Human), UniProt P01116, G12D). Briefly: KRAS G12D NanoLuc assay. It counts as cell-based. The note with it: 24 h compound treatment. The method, then:
HEK293 KRAS-G12D NanoLuc cell pool was used in this study. The cells were stable expressing KRAS G12D HiBiT and LgBiT. Cells were maintained in DMEM supplemented with 10% fetal bovine serum (Thermo Fisher), 50 units/mL penicillin and streptomycin (Thermo Fisher) and kept at 37° C. in a humidified atmosphere of 5% CO2 in air. Cells were reinstated from frozen stocks that were laid down within 30 passages from the cell pool was constructed. 20000 cells per well were seeded a 96-well White with Clear Flat bottom plate for 4 h. Cells were treated with a 10-point dilution series. The final compound concentration is from 0 to 10 μM. After 24 h compound treatment, added 20 μL of CellTiter-Fluor reagent (Promega) to plates, shook for 2 min, incubated at least 30 min in 37° C. Added 25 μL of NanoGlo Live cell reagent (Promega) to the same plate. shook by mini-shaker for 5 min. Measure Luminescence and Fluorescence (380-400nmEx/505nmEm) signals immediately using a PHERAstar FSX reader (BMG Labtech). DC50 determination was performed by fitting the curve of percent inhibition versus the log of the inhibitor concentration using Excel and GraphPad Prism 8.

Test [2] has as its target KRAS G12D protein level in AsPC-1 cells (Homo sapiens (Human), UniProt P01116, G12D). Briefly: Western blotting assay in AsPC-1 cells. The class given is cell-based. The note with it: 3 uM, 48 h compound treatment, Western blot. The method, then: AsPC-1 cell line was used in this study. Cells were maintained in RPMI-1640 supplemented 10% fetal bovine serum (Thermo Fisher), 50 units/mL penicillin and streptomycin (Thermo Fisher) and kept at 37° C. In a humidified atmosphere of 5% CO2 in air. Cells were reinstated from frozen stocks that were laid down within 30 passages from the original cells purchased. 400000 AsPC-1 cells per well in 1 mL culture medium were seed in the 12-well plate for 4 hours. Cells were treated with an appropriate dilution series of compounds. After 48h compound treatment, medium was aspirated, the cells were washed with PBS, and then 30 μL of 1× protein lysis buffer (Cell Signaling Technology) containing protease inhibitors (Merck) and phosphatase inhibitors (Sigma) was added. The cells were lysed, and after centrifugation, the supernatants were quantified by BCA Protein assay Kit (Thermo Fisher). 4× loading Buffer (Thermo Fisher) was added to equal amounts of total protein from each sample and heated at 95° C. for 5 minutes. […]

With `Cc1ncsc1-c1ccc([C@H](C)NC(=O)[C@@H]2C[C@@H](O)CN2C(=O)[C@@H](NC(=O)CCOCCCN2CCC[C@H]2COc2nc3c(c(N4CC5CCC(C4)N5)n2)CCN(c2cccc4cccc(Cl)c24)C3)C(C)(C)C)cc1` [Example 17], in test [1], the DC50 was found to be 708 nM and the Dmax was 80%. Also, in test [2], the “KRAS G12D protein level decrease” value worked out at 40%.
